Results reported in PMC9913425, “Pentacyclic Triterpenoids-Based Ionic Compounds: Synthesis, Study of Structure–Antitumor Activity Relationship, Effects on Mitochondria and Activation of Signaling Pathways of Proliferation, Genome Reparation and Early Apoptosis” (Cancers, 2023).

Key:
A2780 = experiment: In vitro cytotoxicity, IC50 by flow cytometry (Guava ViaCount); type: cell-based, human
Experimental: (§1) Human cancer cell line HeLa, HL60, A2780 was obtained from the HPA Culture Collections (Salisbury, UK). Cells (Jurkat, K562, U937, Hek293, Fibroblasts) were purchased from Russian Cell Culture Collection (Institute of Cytology of the Russian Academy of Sciences, […], Russia) and cultured according to standard protocols and sterile technique. […] Cells were maintained in RPMI 1640 (Jurkat, K562, U937, HL60) (Gibco, Billings, MT, USA) supplemented with […], 10% FBS (Sigma) and 100 units/mL penicillin–streptomycin (Sigma). All types of cells were grown in an atmosphere of 5% CO2 at 37 °C. The cells were subcultured at 2–3 days intervals. Cells were then seeded in 24-well plates at 5 × 10^4 cells per well and incubated overnight. Jurkat, K562, U937, HL60 cells were subcultured at 2-day intervals with a seeding density of 1 × 10^5 cells per 24-well plates in RPMI with 10% FBS.
(§2) The antitumor activity of the synthesized ionic compounds was initially assessed in vitro on Jurkat, K562, U937, HL60, HEK293, A2780 cell lines, including the determination of IC50 by flow cytometry involving Guava ViaCount (Millipore) reagent kits.

HL60 = experiment: as above; type: cell-based, human
Experimental: as §1, §2

K562 = experiment: as above; type: cell-based
Experimental: as §1, §2

U937 = experiment: as above; type: cell-based
Experimental: as §1, §2

HEK293 = experiment: as above; type: cell-based; settings: conditionally normal
Experimental: as §1, §2

Jurkat = experiment: as above; type: cell-based; settings: Jurkat cells
Experimental: as §1, §2

Jurkat cells = experiment: Apoptosis/necrosis induction (Annexin V Alexa Fluor488, 7AAD staining); type: cell-based; settings: compound at IC50 concentration, incubation 2 h
Text: Multiparametric evaluation of marker molecules, along with the detection of damage to the mitochondrial membrane, makes it possible to clearly determine the type of cell death. The method of cell staining with three different dyes (Annexin V Alexa Fluor488, 7AAD and MitoSense Red) provides simultaneous specification of various aspects of the state of the cell membrane, the state of DNA and the viability of mitochondria; together, it is a reliable sign of intrinsic and mitochondrial apoptosis pathway. Normal cells with intact mitochondrial membranes have high MitoSense Red fluorescence, while cells with decoupled oxidation and phosphorylation have much lower fluorescence. […]
Figure 1 The ratio of the level of mito-damage and the level of apoptosis in Jurkat cells of ionic compounds based on ursolic, oleanolic and betulinic acids.

[1] = test system: mitochondria of Jurkat tumor cells; experiment: Mitochondrial damage (MitoSense Red staining); type: cell-based; settings: compound at IC50 concentration, incubation 2 h
[2] = Homo sapiens, A2780, A2780 cells
[3] = Homo sapiens, HL-60, HL60 cells
[4] = Homo sapiens, U-937, U937 cells
[5] = Homo sapiens, HEK293, HEK293 cells

Row | SMILES | IC50 (A2780; [2]) [µM] | IC50 (HL60; [3]) [µM] | IC50 (K562; Homo sapiens, K562, K562 cells) [µM] | IC50 (U937; [4]) [µM] | IC50 (HEK293; [5]) [µM] | IC50 (Jurkat; Homo sapiens, Jurkat) [µM] | IC50 (A2780; A2780 cells) [µM] | IC50 (HL60; HL60 cells) [µM] | IC50 (K562; K562 cells) [µM] | IC50 (U937; U937 cells) [µM] | IC50 (HEK293; HEK293 cells) [µM] | IC50 (Jurkat) [µM] | Apoptosis (%) Early (Jurkat cells) [%] | Apoptosis (%) Late (Jurkat cells) [%] | Apoptosis (%) Necrosis (Jurkat cells) [%] | Mito-Damage (%) [1] [%]
1 | C[n+]1ccn(CCCCOC(=O)[C@]23CCC(C)(C)CC2C2=CCC4[C@@]5(C)CC[C@H](O)C(C)(C)C5CC[C@@]4(C)[C@]2(C)CC3)c1 (stereo partly drawn) [9b, 1-(4-{[(3β)-3-Hydroxyolean-12-en-28-oyl]oxy}butyl)-3-methylimidazolium bromide] | 0.257 ± 0.024 | 0.046 ± 0.004 | 0.149 ± 0.007 | 0.135 ± 0.007 | 0.449 ± 0.041 | 0.029 ± 0.002 |  |  |  |  |  |  |  |  |  | 
2 | C[n+]1ccn(CCCCCCOC(=O)[C@]23CCC(C)(C)CC2C2=CCC4[C@@]5(C)CC[C@H](O)C(C)(C)C5CC[C@@]4(C)[C@]2(C)CC3)c1 (stereo partly drawn) [9c, 1-(6-{[(3β)-3-Hydroxyolean-12-en-28-oyl]oxy}hexyl)-3-methylimidazolium bromide] |  |  |  |  |  |  | 0.234 ± 0.021 | 0.031 ± 0.003 | 0.133 ± 0.006 | 0.119 ± 0.005 | 0.318 ± 0.029 | 0.026 ± 0.001 |  |  |  | 
3 | C[C@@H]1CC[C@]2(C(=O)OCCn3cc[n+](C)c3)CC[C@]3(C)C(=CCC4[C@@]5(C)CC[C@H](O)C(C)(C)C5CC[C@]43C)C2[C@H]1C (stereo partly drawn) [10a, 1-(2-{[(3β)-3-Hydroxyurs-12-en-28-oyl]oxy}ethyl)-3-methylimidazolium bromide] | 0.059 ± 0.005 | 0.008 ± 0.001 | 0.031 ± 0.002 | 0.027 ± 0.002 | 0.091 ± 0.009 | 0.017 ± 0.001 |  |  |  |  |  |  | 10.43 | 5.01 | 0.71 | 11.01
4 | C[C@@H]1CC[C@]2(C(=O)OCCCCCCn3cc[n+](C)c3)CC[C@]3(C)C(=CCC4[C@@]5(C)CC[C@H](O)C(C)(C)C5CC[C@]43C)C2[C@H]1C (some centres unmarked) [10c] | 0.011 ± 0.001 | 0.002 ± 0.001 | 0.007 ± 0.001 | 0.006 ± 0.001 | 0.024 ± 0.002 | 0.003 ± 0.001 |  |  |  |  |  |  | 6.61 | 4.08 | 0.61 | 8.89
5 | C=C(C)[C@@H]1CC[C@]2(C(=O)OCCn3cc[n+](C)c3)CC[C@]3(C)C(CCC4[C@@]5(C)CC[C@H](O)C(C)(C)C5CC[C@]43C)C12 (stereo partly drawn) [11a, 1-(2-{[(3β)-3-Hydroxylup-20(29)-en-28-oyl]oxy}ethyl)-3-methylimidazolium bromide] | 0.132 ± 0.012 | 0.022 ± 0.002 | 0.076 ± 0.004 | 0.069 ± 0.003 | 0.237 ± 0.021 | 0.025 ± 0.001 |  |  |  |  |  |  | 6.58 | 0.74 | 0.56 | 5.26
6 | C=C(C)[C@@H]1CC[C@]2(C(=O)OCCCCCCn3cc[n+](C)c3)CC[C@]3(C)C(CCC4[C@@]5(C)CC[C@H](O)C(C)(C)C5CC[C@]43C)C12 (some centres unmarked) [11c] | 0.036 ± 0.003 | 0.006 ± 0.001 | 0.021 ± 0.001 | 0.019 ± 0.001 | 0.054 ± 0.005 | 0.039 ± 0.004 |  |  |  |  |  |  | 15.59 | 1.82 | 4.37 | 25.72
7 | C[n+]1ccn(CCCCCCOC(=O)[C@]23CCC(C)(C)CC2C2=CCC4[C@@]5(C)CC[C@H](O)C(C)(C)C5CC[C@@]4(C)[C@]2(C)CC3)c1 (stereo partly drawn) [13a, 1-(6-{[(3β)-3-Hydroxyolean-12-en-28-oyl]oxy}hexyl)-3-methylimidazolium Tetrafluoroborate] |  |  |  |  |  |  | 0.018 ± 0.002 | 0.002 ± 0.001 | 0.006 ± 0.001 | 0.005 ± 0.001 | 0.024 ± 0.002 | 0.003 ± 0.001 |  |  |  | 
8 | C[C@H](O)C(=O)[O-].C[n+]1ccn(CCCCCCOC(=O)[C@]23CCC(C)(C)CC2C2=CCC4[C@@]5(C)CC[C@H](O)C(C)(C)C5CC[C@@]4(C)[C@]2(C)CC3)c1 (stereo partly drawn) [13g, 1-(6-{[(3β)-3-Hydroxyolean-12-en-28-oyl]oxy}hexyl)-3-methylimidazolium L-lactate] |  |  |  |  |  |  | 0.013 ± 0.001 | 0.002 ± 0.001 | 0.014 ± 0.001 | 0.013 ± 0.001 | 0.026 ± 0.002 | 0.007 ± 0.001 |  |  |  | 97.4
9 | CC1(C)CCC2(C(=O)[O-])CCC3(C)C(=CCC4C5(C)CCC(O)C(C)(C)C5CCC43C)C2C1.CC[n+]1ccn(C)c1 (stereo not drawn) [15a, 1-Ethyl-3-methylimidazolium (3β)-3-hydroxyolean-12-en-28-oylate] |  |  |  |  |  |  | 0.162 ± 0.012 | 0.034 ± 0.003 | 0.088 ± 0.005 | 0.079 ± 0.005 | 0.359 ± 0.031 | 0.047 ± 0.003 |  |  |  | 
10 | CCn1cc[n+](C)c1.C[C@H]1[C@H](C)CC[C@]2(C(=O)[O-])CC[C@]3(C)C(=CC[C@@H]4[C@@]5(C)CC[C@H](O)C(C)(C)[C@@H]5CC[C@]43C)[C@H]12 [16a, 1-Ethyl-3-methylimidazolium (3β)-3-hydroxyours-12-en-28-oylate] |  |  |  |  |  |  | 0.088 ± 0.007 | 0.018 ± 0.002 | 0.036 ± 0.002 | 0.034 ± 0.002 | 0.178 ± 0.018 | 0.033 ± 0.002 |  |  |  | 
